Experiments:
Experiment in all cases: Solid tumour and haematological malignancy assay (CellTiterGlo)
Assay type in all cases: cell-based
[1] = tested on: MV4-11; details: for IC50: Homo sapiens, MV4-11, 72 h, read-out: IC50 (absolute IC50)
Method: (§1) In vitro viability assay were performed to assess the effects of compounds on cell viability in selected cell lines over 72 hr using the CellTiterGlo (CTG, Promega-G7573) assay. The tests were performed in duplicates with treatment of compounds at 9 points, 3.16 folds titration in 96 well plates over ˜72 hr. The compound starting concentrations were […]. Cell viability assay using CellTiterGlo in 96-well plate were performed. Compound treatment 72 hrs, standard growth conditions, duplicates. Compounds were dissolved to 40 mM with thawed […]. Compounds were serially diluted at 3.16 fold in thawed DMSO, and warmed to 37° C. before being dissolved in media (2 μl+200 μl). After compounds were dissolved in media, media containing compounds were warmed to 37° C. in incubator and then compounds in media were added to cell plates (50 μl+50 μl) in duplicates. The compounds' final concentrations were from 198M to 19.9 nM. All compound solubilities were checked and recorded again, then the plates were transferred to CO2 tissue culture incubator immediately and incubated for 3 days. DMSO final concentration is 0.5%.

[2] = tested on: NCI-H929; details: Homo sapiens, NCI-H929, 72 h, read-out: MI %
Method: as §1

[3] = tested on: RL; details: Homo sapiens, 72 h, read-out: MI %
Method: as §1

Compound | IC50 [1] | MI % ([1]; MV4-11, 72 hr) | Emax [2] | Emax [3]
COC(=O)C(C)(C)NP(=O)(OC[C@@H]1C[C@@H](O)[C@H](n2cnc3c(N)ncnc32)O1)Oc1cccc2ccccc12 (stereo partly drawn) [E, Methyl 2-(((((2S,4R,5R)-5-(6-amino-9H-purin-9-yl)-4-hydroxytetrahydrofuran-2-yl)-methoxy)(naphthalen-1-yloxy)phosphoryl)amino)-2-methylpropanoate] | 5 to 15 µM | 101% | 98% | 88%
C[C@H](NP(=O)(OC[C@@H]1C[C@@H](O)[C@H](n2cnc3c(N)ncnc32)O1)Oc1cccc2ccccc12)C(=O)OCc1ccccc1 (stereo partly drawn) [B, (2S)-benzyl 2-(((((2S,4R,5R)-5-(6-amino-9H-purin-9-yl)-4-hydroxytetrahydrofuran-2-yl)methoxy)(naphthalen-1-yloxy)phosphoryl)amino)propanoate] | 0.1 to 5 µM |  |  | 96%

Source: US12054510B2, “2′ and/or 5′ amino-acid ester phosphoramidate 3′-deoxy adenosine derivatives as anti-cancer compounds” (Nucana plc, priority 2014, dated 2024)
